Data from PubChem BioAssay (NCI).
Where “and” joins values, the source holds several entries; their conditions need not be identical. Identical values can stand only once.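 Interpolation was linear, between the two tested concentrations surrounding the appropriate level; five concentrations were tested over 48 hours in 96-well plates. Abbreviation: GI50, concentration required for 50% inhibition of growth. At the TGI there is no net growth.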

Experiments:
Assay in all cases: inhibition of tumour cell growth, NCI panel, 48 h
PC-3 prostate = tested on: PC-3 prostate
786-0 renal = tested on: 786-0 renal
MCF7 breast = tested on: MCF7 breast
UACC-62 melanoma = tested on: UACC-62 melanoma
SK-OV-3 ovarian = tested on: SK-OV-3 ovarian
HCT-15 colon = tested on: HCT-15 colon
SW-620 colon = tested on: SW-620 colon
HS 578T breast = tested on: HS 578T breast

Compound	GI50 (PC-3 prostate)	TGI (PC-3 prostate)	GI50 (786-0 renal)	TGI (786-0 renal)	GI50 (MCF7 breast)	GI50 (UACC-62 melanoma)	TGI (UACC-62 melanoma)	GI50 (SK-OV-3 ovarian)	TGI (SK-OV-3 ovarian)	GI50 (HCT-15 colon)	TGI (HCT-15 colon)	GI50 (SW-620 colon)	TGI (SW-620 colon)	TGI (MCF7 breast)	GI50 (HS 578T breast)	TGI (HS 578T breast)
CCN(CC)c1ccc2nc3c4ccccc4c(=NC(=O)c4ccccc4-c4c5ccc(N(CC)CC)cc5[o+]c5cc(N(CC)CC)ccc45)cc-3oc2c1	1.97 µM	> 20.6 µM	2.41 µM	6.68 µM	1.59 µM	5.73 µM	17.9 µM	12.3 µM	26.6 µM	1.42 µM	3.9 µM	2.54 µM	> 22.5 µM			
CCOc1cc(/C=N\NC(=O)N/N=C/c2ccc(O)c(OCC)c2)ccc1O	3.51 µM	> 100 µM	7.68 µM	> 100 µM	0.815 µM	1.79 µM	> 100 µM	1.25 µM	> 100 µM	3.1 µM	> 100 µM	0.959 µM	> 100 µM	> 100 µM	1.16 µM	> 100 µM
COc1cnc2c(c1)C(=O)c1c-2n(CCCN2CCN(CCO)CC2)c(=O)c2cc([N+](=O)[O-])ccc12	16.5 µM	92.6 µM	1.61 µM	3.13 µM	0.142 µM	1.22 µM	3.16 µM	4.99 µM	20.2 µM	1.18 µM	2.67 µM	0.326 µM	2.07 µM	1.59 µM	14.7 µM	42.1 µM
CNCCOc1nc2c3cnccc3cc(-c3cc(OC)c(OC)c(OC)c3)c2c2ccncc12	0.0471 µM	1.12 µM	0.0194 µM	0.175 µM	< 0.01 µM	0.027 µM	0.169 µM	0.0323 µM	0.185 µM	0.0467 µM	2.19 µM	0.0243 µM	1.7 µM	0.275 µM	0.139 µM	0.747 µM
c1cnc2c(c1)Nc1cnncc1S2		> 100 µM		> 100 µM			> 100 µM		> 100 µM		> 100 µM		> 100 µM	> 100 µM		> 100 µM
CC(C)N(C[C@H]1O[C@@H](n2cnc3c(N)ncnc32)[C@H](O)[C@@H]1O)C1CC(CCc2nc3ccc(C(C)(C)C)cc3[nH]2)C1 (stereo partly drawn)	97.9 µM	> 100 µM	> 100 µM	> 100 µM	33.2 µM	99.7 µM	> 100 µM	> 100 µM	> 100 µM	> 100 µM	> 100 µM	> 100 µM	> 100 µM	> 100 µM	> 76.5 µM	> 100 µM
CN(C)CCOc1nc2ccccc2c2c1-c1ccc(Cl)cc1C2=O	1.34 µM	7.69 µM	0.889 µM	3.26 µM	0.324 µM	1.38 µM	2.93 µM	1.76 µM	> 37 µM	0.464 µM	1.92 µM	0.34 µM	1.53 µM	1.39 µM	0.728 µM	3.59 µM
O=C(CC1(O)C(=O)Nc2c(Cl)ccc(Cl)c21)c1ccc(C2CC2)cc1 (stereo not drawn)	1.38 µM	16.6 µM	1.78 µM	16.9 µM	0.322 µM	0.508 µM	17.4 µM	1.33 µM	17 µM	0.185 µM	14.3 µM	0.29 µM	13 µM	14.5 µM	1.83 µM	8.58 µM
Nc1cccc2nsnc12		> 100 µM		> 100 µM			> 100 µM		> 100 µM		> 100 µM		> 100 µM	> 100 µM		> 100 µM
CCNCCNc1cc(-c2cccc(C(F)(F)F)c2)c(C#N)c2nc3ccccc3n12	1.83 µM	3.54 µM	1.02 µM	2.33 µM		1.69 µM	3.2 µM	2 µM	3.49 µM	0.708 µM	2.12 µM	0.39 µM	1.51 µM		1.84 µM	3.88 µM
Cc1ccc(-c2cc(/C=N/O)on2)cc1	63 µM	> 100 µM	50.4 µM	> 100 µM	55.1 µM	38.9 µM	> 100 µM	> 100 µM	> 100 µM	64.6 µM	> 100 µM	65.7 µM	> 100 µM	> 100 µM	> 100 µM	> 100 µM
C=C1CO[C@@H]2C[C@@H]1CC/C(C)=C/CC/C(C)=C/CC[C@@]2(C)O	15.7 µM	33.6 µM	17.5 µM	32.9 µM	25.4 µM	18.4 µM	35.1 µM	24 µM	56.6 µM	19.9 µM	38 µM	22.2 µM	45.9 µM	> 63.6 µM	25.7 µM	> 83.4 µM
O=[N+]([O-])c1ccc(-c2ccccc2)c([As](=O)(O)O)c1	16.1 µM	> 100 µM	17.7 µM	36.4 µM	3.75 µM	22.5 µM	> 100 µM	24.2 µM	91.5 µM	9.3 µM	41.2 µM	7.82 µM	24.4 µM	16.1 µM	0.798 µM	18.4 µM
O=C1c2ccccc2C(=O)c2c(NC(=O)c3ccc4c5c(ncnc35)-c3ccccc3C4=O)cccc21		> 100 µM		84.7 µM			> 100 µM		48.2 µM		> 100 µM		> 100 µM	> 100 µM		> 100 µM
NC(=O)NC(=O)C1CCCCC1C(=O)O (stereo not drawn)		> 100 µM		> 100 µM			> 100 µM		> 100 µM		> 100 µM		> 100 µM	> 100 µM		> 100 µM
CCOC(=O)C(Cc1ccc(OC)cc1)C(=O)OCC	5.08 µM	32.4 µM	6.19 µM	18.7 µM	3.03 µM	4.66 µM	17.3 µM	10.7 µM	55.8 µM	3.77 µM	19.4 µM			13.8 µM		
CS[C@@]1(C(=O)Nc2ccc3[nH]nc(-c4ccc(OC(C)C)nc4)c3c2)CCN(CC(=O)N2CC=C(c3ccc(-c4ncn(C)n4)cc3)CC2)C1	6.56 µM	> 100 µM	5.27 µM	> 100 µM	13.9 µM			> 100 µM	> 100 µM	2.27 µM	> 100 µM	0.201 µM	> 100 µM	> 100 µM		

Compound	GI50 (PC-3 prostate)	TGI (PC-3 prostate)	GI50 (786-0 renal)	TGI (786-0 renal)	GI50 (MCF7 breast)	GI50 (UACC-62 melanoma)	TGI (UACC-62 melanoma)	GI50 (SK-OV-3 ovarian)	TGI (SK-OV-3 ovarian)	GI50 (HCT-15 colon)	TGI (HCT-15 colon)	GI50 (SW-620 colon)	TGI (SW-620 colon)	TGI (MCF7 breast)	GI50 (HS 578T breast)	TGI (HS 578T breast)
C/C(=N\Nc1cccc(Cl)n1)c1ccccn1	0.89 µM	> 100 µM	0.671 µM	17.5 µM	2 µM	1.22 µM	4.93 µM	1.08 µM	> 43.2 µM	0.363 µM	> 100 µM	0.614 µM	> 100 µM	> 100 µM	5.08 µM	> 100 µM
COc1cc(/C=C/C(=O)c2ccc(Nc3nc(Nc4ccccc4)nc(Nc4ccc(Cl)cc4)n3)cc2)cc(OC)c1OC			9.84 µM	> 32.5 µM	2.02 µM	14.7 µM	> 32.5 µM	> 32.5 µM	> 32.5 µM	8.86 µM	> 32.5 µM	8.46 µM	> 32.5 µM	> 32.5 µM	15.2 µM	> 32.5 µM
O=C1c2cccc3cc([N+](=O)[O-])cc(c23)C(=O)N1O		> 100 µM		> 100 µM			81.4 µM		> 100 µM		> 100 µM		> 100 µM	91.8 µM		> 100 µM
COc1ccc(C2C3=C(COC3=O)N(CCO)c3cc4c(cc32)OCCO4)cc1OC (stereo not drawn)	1.58 µM	> 50 µM	2.48 µM	> 50 µM	0.634 µM		> 50 µM	1.98 µM	> 50 µM	5.39 µM	> 50 µM	1.8 µM	> 50 µM	> 50 µM	1.44 µM	> 50 µM
N#CC[C@H](C1CCCC1)n1cc(-c2ncnc3[nH]ccc23)cn1	35.2 µM	> 100 µM	12.9 µM	> 91.3 µM	17.6 µM	37 µM	> 100 µM	24.7 µM	> 88 µM	26.6 µM	> 100 µM	12.5 µM	> 96.6 µM	> 86.8 µM	5.19 µM	69.9 µM
COc1cc2c3c(c1O)C1(C=CC(=O)C=C1)CC3N(C)CC2 (stereo not drawn)		31.1 µM		15.6 µM			23.1 µM		> 100 µM		19 µM		18.3 µM	20.5 µM		> 100 µM
ClC1=C(Cl)C(Cl)=C(Cl)C1=Cc1ccc(Cl)cc1	0.876 µM	6.5 µM	0.604 µM	1.64 µM	0.386 µM	0.363 µM	1.65 µM	1.64 µM	3.55 µM	0.536 µM	2.56 µM	0.241 µM	0.68 µM	1.79 µM	0.585 µM	
C[C@@H](Oc1cc(-c2cnn(C3CC4(CCCNC4)C3)c2)cnc1N)c1c(Cl)ccc(F)c1Cl (stereo partly drawn)	1.25 µM	6.83 µM	1.64 µM	3.19 µM	0.363 µM	1.58 µM	3.09 µM	2.61 µM	6.96 µM	1.3 µM	3.16 µM	0.597 µM	2.36 µM	1.85 µM	1.63 µM	4.47 µM
CC[C@@]1(OC(=O)CN)C(=O)OCc2c1cc1n(c2=O)Cc2cc3c(N)c4c(cc3nc2-1)OCO4	0.0361 µM and 0.0322 µM	> 100 µM	< 0.0001 µM	0.0093 µM	< 0.0001 µM	< 0.0001 µM	0.0246 µM	0.00015 µM	0.148 µM	0.0409 µM and 0.147 µM	> 100 µM	0.00243 µM	> 100 µM		0.232 µM	
CC[C@H](C)[C@H](NC(=O)C12CC(NC(C)=O)(C1)C2)C(=O)N(C)[C@H](C[C@@H](OC(C)=O)c1nc(C(=O)N[C@@H](Cc2ccccc2)C[C@H](C)C(=O)OC)cs1)C(C)C	0.194 µM	> 16.7 µM	0.395 µM	> 16.7 µM	0.0489 µM	0.0735 µM	> 16.7 µM	0.394 µM	> 10.9 µM	1.09 µM	> 16.7 µM	0.0854 µM	> 16.7 µM	> 16.7 µM	0.505 µM	> 9.51 µM
CC[O-].CC[O-].O=C([CH-]C(=O)c1ccccc1)c1ccccc1.O=C([CH-]C(=O)c1ccccc1)c1ccccc1.[Ti+4]			> 100 µM	> 100 µM		> 100 µM	> 100 µM	> 100 µM	> 100 µM	> 100 µM	> 100 µM	> 100 µM	> 100 µM			
Brc1ccc(Br)nn1	4.41 µM	22 µM	2.11 µM	4.75 µM	1.21 µM	1.88 µM	6.24 µM	8.64 µM	20.8 µM	1.74 µM	3.66 µM	1.66 µM	6.54 µM	2.64 µM	1.75 µM	28.1 µM
CON			> 100 µM	> 100 µM	> 100 µM	> 100 µM	> 100 µM	> 100 µM	> 100 µM	> 100 µM	> 100 µM	> 100 µM	> 100 µM	> 100 µM	> 100 µM	> 100 µM
CCS/C(Nc1ccccc1)=C(\C#N)C(=O)N/N=C/c1ccc(Cl)cc1Cl			3.5 µM	> 100 µM	2.99 µM	2.74 µM	> 100 µM	3.72 µM	> 100 µM	2.9 µM	> 100 µM	4.65 µM	> 100 µM	> 100 µM	2.74 µM	98.7 µM
Oc1[nH]c2ccc(Cl)cc2c1/C=c1/ccc2c(c1)N=C(c1cc(F)cc(F)c1)N=2	3.44 µM	> 100 µM	3.66 µM	> 100 µM		3.43 µM	> 100 µM	31.9 µM	> 100 µM	3.96 µM	> 100 µM				2.9 µM	> 100 µM
CC1(C)CC2CC(C)(CN2c2ncnc3ccc(Br)cc23)C1 (stereo not drawn)			12.8 µM	25.4 µM		5.76 µM	19.5 µM	16.8 µM	31.2 µM	15.5 µM	28.9 µM	15 µM	30.7 µM		10.3 µM	30.4 µM
